For data set [1], the system named is MLKL. Nature of the data set: Western blot of phospho-MLKL after FMRP antisense treatment. The class given is cell-based. As to conditions: human CRC cell lines, 24 hours, FIGS. 6A, 6D. As to the method:
(§1) To confirm the association of FMRP with components of the necroptosis pathway, cells were left untreated or transfected with either FMRP antisense oligonucleotide (final concentration 0.5 nM and 100 nM) or FMRP sense oligonucleotide (final concentration 100 nM); incubated with a pMLKL inhibitor (necrosulfonamide, NSA; final concentration 1 μM)(Calbiochem); or a pRIPK1 inhibitor (necrostatinl, NEC1; final concentration 10 μM)(Cayman Chemical, Ann Arbor, Mich. USA). After 24 hours cells were collected and analyzed by Western blot, or stained with FITC-Annexin V and PI for flow cytometry analysis, as previously described in Examples 1-3.

Data set [2] relates to MCC. In words: Western blot of MCC in HCT-116 cells. The data set is classed as cell-based, human. As to conditions: HCT-116, AS 0.5 nM, 48 hours, vs untreated or sense, FIGS. 9A, 9B. As to the method:
To investigate whether FMRP regulates MCC, a protein known to interact with the E-cadherin/β-catenin complex, HCT-116 cells were left untreated (U) or transfected with sense FMRP oligonucleotide (S) (final concentration 0.5 nM) or antisense FMRP oligonucleotide (AS) (final concentration 0.5 nM) for 48 hours.
(In general: Immunoblotting shows a protein as a band on a membrane.)

For data set [3], the system named is caspase 3. Nature of the data set: Activated caspase 3 by flow cytometry in CRC cells. The data set is classed as cell-based, human. As to conditions: oligonucleotide 100 nM 36 hours, staurosporin 1 μM, FIGS. 4A, 4B. The procedure: Immunotools, Friesoythe, Germany) according to the manufacturer's instructions, and incubated with […] of propidium iodide (PI) for 30 min at 4° C. Cells were also transfected with either FMRP sense oligonucleotide or FMRP AS oligonucleotide (final concentration 100 nM) for 36 hours and analyzed for activated caspase 3 and caspase 8. […] Additionally, 36 hours (FIGS. 4F and 4G) or 48 hours post-transfection (FIGS. 4D and 4E), cells were pulsed with […] bromodeoxyuridine for 60 minutes, fixed in 70% cold ethanol, and stored at −20° C. for at least 3 hours. […] Fluorescence was measured using Gallios Flow Cytometer (Beckman Coulter, Life Sciences, Pasadena, Calif., USA) and analyzed using Kaluza software (Beckman Coulter). Viable cells were considered as AV^−/PI^− cells.

Data set [4] relates to β-catenin. In words: Western blot of β-catenin in HCT-116 cells. The note with it: HCT-116, AS 0.5 nM, 48 hours, vs untreated or sense, FIGS. 8E, 8G. The class given is cell-based, human. As to the method:
(§2) To determine whether FMRP regulates levels of E-cadherin and/or β-catenin, key proteins associated with cellular adhesion, cytoskeletal remodeling, and inhibition of tumor migration and invasion, cells were left untreated (U), or transfected with either FMRP sense (S) oligonucleotide (final concentration 0.5 nM) or FMRP antisense (AS) oligonucleotide (final concentration 0.5 nM) for 48 hours.
(§3) Recent studies have described a novel tumor suppressor function of MCC in the regulation of E-cadherin/β-catenin complex-mediated cell-cell adhesion in colorectal cells. To investigate whether MCC mediates the observed increase of E-cadherin and β-catenin expression in HCT-116 cells transfected with antisense FMRP oligonucleotide (e.g., FIGS. 8E-8G), cells were left untreated (U) or transfected with sense FMRP oligonucleotide (final concentration 0.5 nM), or antisense FMRP oligonucleotide (final concentration 0.5 nM), and/or control siRNA (siRNA Ctrl) or siRNA specific for MCC (siRNA MCC) for 48 hours.

For data set [5], the system named is HCT-116 cells. In words: Cell death by AnnexinV/PI flow cytometry in HCT-116 cells. The class given is cell-based, human. The note with it: 48 hours, AS 0.5 nM and 100 nM, FIG. 3H. The procedure:
(§4) Cells were transfected with either FMRP antisense oligonucleotide (AS)(final concentration 0.5 nM and 100 nM) or FMRP sense oligonucleotide (S)(final concentration 100 nM). After 24 hours (FIGS. 3E, 3F, 3J and 3K) or 48 hours (FIG. 3H), cells were collected, washed two times in Annexin V (AV) buffer, stained with FITC-AnnexinV (final dilution 1:100; Immunotools, Friesoythe, Germany) according to the manufacturer's instructions, and incubated with […] of propidium iodide (PI) for 30 min at 4° C. Cells were also transfected with either FMRP sense oligonucleotide or FMRP AS oligonucleotide (final concentration 100 nM) for 36 hours and analyzed for activated caspase 3 and caspase 8. As positive and negative controls, cells were treated, respectively, with staurosporin (final concentration 1 μM, Sigma-Aldrich Milan, Italy) or Q-VD-OPh (a pan-caspase inhibitor; final concentration 1 μM) (R&D Systems, Inc, Minneapolis, Minn.). Additionally, 36 hours (FIGS. 4F and 4G) or 48 hours post-transfection (FIGS. 4D and 4E), cells were pulsed with […] bromodeoxyuridine for 60 minutes, fixed in 70% cold ethanol, and stored at −20° C. for at least 3 hours. […] Fluorescence was measured using Gallios Flow Cytometer (Beckman Coulter, Life Sciences, Pasadena, Calif., USA) and analyzed using Kaluza software (Beckman Coulter). […]
(In flow cytometry, cells or beads pass a laser one at a time.)

The subject of data set [6] is E-cadherin. Nature of the data set: Western blot of E-cadherin in HCT-116 cells. The class given is cell-based, human. The note with it: HCT-116, AS 0.5 nM, 48 hours, vs untreated or sense, FIGS. 8E, 8F. The procedure:
as §2, §3

Data set [7] deals with RIPK3. In words: Western blot of phospho-RIPK3 after FMRP antisense treatment. The data set is classed as cell-based. The note with it: human CRC cell lines, 24 hours, FIGS. 6A, 6C. The procedure: as §1
The subject of data set [8] is DLD-1 cell lines. Nature of the data set: Cell cycle distribution by bromodeoxyuridine/PI flow cytometry. The class given is cell-based, human. As to conditions: DLD-1 48 hours (FIGS. 4D, 4E); HCT-116 36 hours (FIGS. 4F, 4G); before induction of cell death. The procedure:
as §4

Data set [9] concerns RIPK1. In words: Western blot of RIPK1 and phospho-RIPK1 after FMRP antisense treatment. The data set is classed as cell-based. As to conditions: human CRC cell lines, 24 hours. The procedure:
as §1

Turning to “5′-TCCACCACCAGCTCCTCCAT-3′ (all phosphorothioate, sugars by position and methylation of C not given here) [FMRP antisense oligonucleotide, Phosphorothioate single-stranded antisense oligonucleotides complementary to human FMRP]”, the “phosphorylation of MLKL” value in [1] is recorded as “increased phosphorylation”. Also, the MCC protein expression result in [2] is reported as “significantly increased expression of MCC”. For the same substance, the “percentage of activated caspase 3-positive cells” value in [3] was “did not alter”. Besides, the β-catenin protein expression entry in data set [4] was “significantly increased”. Besides, the “number of AnnexinV+ or AnnexinV+ PI+ cells” value in [5] is reported as “neither HCT-116 cells nor HCRC-1ct cells treated with FMRP antisense oligonucleotide exhibited an increased number”. Besides, in [6], the E-cadherin protein expression result is reported as “significantly increased”. Besides, the “phosphorylation of RIPK3” value in [7] is “increased phosphorylation”. In addition, in data set [8], the “relative percentage of cells in G2/M, S, or G0/G1 cell cycle phases” value was “did not affect”. The “total protein expression levels of RIPK1” value in [9] (AS 0.5 nM and 100 nM, FIG. 6A) was “increased the total protein expression levels of RIPK1”. Also, the “phosphorylation of RIPK1” value in data set [9] (FIGS. 6A, 6B) was “increased phosphorylation”.

These data come from patent US20220145303A1, “FRAGILE X MENTAL RETARDATION PROTEIN INTERFERING OLIGONUCLEOTIDES AND METHODS OF USING SAME” (Nogra Pharma Limited, priority 2019, published 2022).
